Source: ChEMBL document CHEMBL4842338, “System-oriented optimization of multi-target 2,6-diaminopurine derivatives: Easily accessible broad-spectrum antivirals active against flaviviruses, influenza virus and SARS-CoV-2” (Eur J Med Chem, 2021)
Active and inactive are the calls of the source. The calls are words filed in the database; no cut-off is given here.

What was measured:
Influenza A virus [1] = assay: Antiviral activity against Influenza A virus (A/parrot/Ulster/73(H7N1)) infected in human A549 cells assessed as reduction in viral protein expression at 20 uM treated for 1 hr during viral adsorption followed by staining with anti-Flu antibody observed at 24 hrs post infection by In-cell western assay; type: functional, organism-based
[2] = Inhibition of full length ZIKA virus NS5 RNA dependent RNA polymerase incubated for 10 mins by picogreen staining based fluorescent analysis (Rvb= 1+/-0.2 uM)
dengue virus type 2 = assay: Antiviral activity against Dengue virus serotype 2 New Guinea C infected in pre-seeded Huh-7 cells assessed as inhibition of viral replication incubated for 72 hrs by immunodetection based direct yield reduction assay; type: functional, organism-based; details: huh-7
Influenza A virus [3] = assay: Antiviral activity against Influenza A Puerto Rico/8/34/H1N1 infected in human A549 cells assessed as reduction in viral protein expression at 20 uM treated for 24 hrs post viral adsorption followed by staining with anti-Flu antibody observed at 24 hrs post infection by In-cell western assay; type: functional, organism-based; details: A/Puerto Rico/8/1934(H1N1)
[4] = Selectivity index, ratio of CC50 for human Huh-7 cells to IC50 for Zika virus H/PF/2013 infected in pre-seeded Huh-7 cells assessed as inhibition of viral replication incubated for 72 hrs by immunodetection based plaque reduction assay; type: toxicity, cell-based; details: read-out: Selectivity Index

FC(F)(F)c1cccc(Nc2nc(NCCOc3ccccc3)nc3[nH]cnc23)c1
Activity (Influenza A virus [1]): Active
IC50 [2]: 12.8 µM
IC50 (dengue virus type 2): Not Active
Activity (Influenza A virus [3]): Active
selectivity ratio at 72 h [4]: 400
